Literature values, collected in US10138221B2, “Salts of nilotinib and polymorphs thereof” (Sun Pharmaceutical Industries Limited, priority 2014, dated 2018).
Where two headings read alike, the source gives them in different places.

What was measured:
[1] = low solubility/low permeability

Biopharmaceutics Classification System (BCS) class (solubility/permeability) [1]: class IV | solubility (acidic media): soluble | solubility (buffer solutions of pH 4.5 and higher): practically insoluble
Structure (SMILES): Cc1cn(-c2cc(NC(=O)c3ccc(C)c(Nc4nccc(-c5cccnc5)n4)c3)cc(C(F)(F)F)c2)cn1 [Nilotinib, 4-methyl-N-[3-(4-methyl-1H-imidazol-1-yl)-5-(trifluoromethyl)phenyl]-3-[[4-(3-pyridinyl)-2-pyrimidinyl]amino]-benzamide]
